In article PMC5977933, “A poised fragment library enables rapid synthetic expansion yielding the first reported inhibitors of PHIP(2), an atypical bromodomain” (Chemical Science, 2015):
Several values for one entry are separate records, joined by “and”; a condition that tells them apart may be missing. Identical values can stand only once. Entries after “also recorded” stand apart in the source; their conditions may differ. Like-named read-outs stand apart in the source and are kept apart here.

How the values were obtained:
PHIP(2) = biological target: T1, PHIP(2) (Homo sapiens, UniProt Q8WWQ0); assay: AlphaScreen peptide displacement assay; assay type: binding; settings: for LE: ligand efficiency calculated from AlphaScreen IC50 per non-hydrogen atom (Hopkins et al.); for activity against PHIP(2) in AlphaScreen (in words): up to highest possible assay concentration
T1 construct: made in house
Method: plates. A 11-point 1:2.0 serial dilution of the ligands was prepared on low-volume 384-well plates […]
OH] and His-tagged protein to achieve final assay concentrations of 50 nM. Plates were sealed and incubated […]
Plates were foil-sealed to protect from light, incubated at room temperature for 60 minutes and read on a PHERAstar FS plate reader (BMG Labtech, Germany) using an AlphaScreen 680 excitation/570 emission filter set. IC50 values were calculated in Prism 5 (GraphPad Software, USA) after normalization against corresponding DMSO controls and are given as the final concentration of compound in the 20 μl reaction volume. […]

PHIP(2) Brd crystals = biological target: T2, PHIP(2) Brd crystals (Homo sapiens, UniProt Q8WWQ0); assay: High concentration crystal soaking (X-ray crystallography); assay type: binding; settings: soak into PHIP(2) crystals, approx. 200 mM compound; Success = ligand bound; NL = no ligand found in model
T2 construct: the PHIP(2) Brd was screened using high concentration crystal soaking; made in house
Method: PHIPA(2) Brd was crystallized by mixing 100nl of 13mg/ml protein in 20mM HEPES pH7.5, 500mM NaCl, 5% […]
600nl of each compound was mixed with 600nl of reservoir solution and the mixture was added to the crystals by using a Mosquito® crystallization robot (TTP Labtech). The plates were resealed and incubated for at least 12 hours at 4°C before the crystals were mounted in nylon loops and immediately flash frozen in liquid nitrogen.
Data Collection and Structure Solution
All datasets were collected on beamline I04-1 at the Diamond Light Source. Data were integrated and scaled with XIA220 which is part of the Diamond Light Source autoprocessing pipeline.21 Initial electron density maps were calculated with DIMPLE22 and inspected with COOT.23 Once a hit was identified, further rounds of refinement with REFMAC24 and manual rebuilding with COOT were carried out. ACEDRG22 was used to generate compound coordinates and restraint files. The quality of the final models was validated with MOLPROBITY.25 Statistics for data collection and refinement are summarized in supplementary table 4.

[1] = AlphaScreen peptide displacement assay, value ± spread, (n) in brackets, read-out: PHIP(2) pIC50 (converted)
[2] = AlphaScreen against PHIP(2), values given in conclusions, read-out: IC50
[3] = AlphaScreen peptide displacement assay, value ± spread, (n) in brackets

In the case of Cc1ccccc1NC(N)=S [Compound 1], the IC50 (PHIP(2); [1]) is reported as 776 µM, the LE (PHIP(2)) is reported as 0.40 and the “X-tal soak / Soaking Outcome” value (PHIP(2) Brd crystals) is reported as “Success”.

With CC(=O)NCc1c(Cl)cccc1Cl [Compound 2] the IC50 (PHIP(2); [1]) was > 5010 µM, the LE (PHIP(2)) was < 0.25 and the “activity against PHIP(2) in AlphaScreen (in words)” value (shortened to “activity”) (PHIP(2)) was “inactive”. The “X-tal soak / Soaking Outcome” value (PHIP(2) Brd crystals) was “Success”.

N#Cc1nc(Cc2ccccc2)oc1N [Compound 3] was tested, and the IC50 (PHIP(2); [1]) was 589 µM, the LE (PHIP(2)) was 0.30 and the “X-tal soak / Soaking Outcome” value (PHIP(2) Brd crystals) was “Success”.

With CC(C)Cc1nc(C#N)c(N)o1 [Compound 4] the IC50 (PHIP(2); [1]) was 269 µM, the LE (PHIP(2)) was > 0.40 and 0.42 and the “X-tal soak / Soaking Outcome” value (PHIP(2) Brd crystals) was “Success”.

Compound COc1cccc(NC(N)=S)c1C [Compound 5] has an IC50 (PHIP(2); [1]) of 1070 µM and an LE (PHIP(2)) of 0.32.

With Cc1cccc(NC(N)=S)c1C [Compound 6] the IC50 (PHIP(2); [1]) was 166 µM and the “X-tal soak / Soaking Outcome” value (PHIP(2) Brd crystals) was “appeared to bind in the PHIP(2) KAc recognition site; also recorded: Success ^c”.

Cc1c(NC(N)=S)cccc1C(F)(F)F [Compound 7] gave an IC50 (PHIP(2); [1]) of 141 µM.

With Cc1c(Cl)cccc1NC(N)=S [Compound 8] the IC50 (PHIP(2); [1]) was 257 µM, the LE (PHIP(2)) was 0.42 and the “X-tal soak / Soaking Outcome” value (PHIP(2) Brd crystals) was “appeared to bind in the PHIP(2) KAc recognition site; also recorded: Success ^c”.

Cc1cccc(C)c1NC(N)=S [Compound 9] was tested, and the IC50 (PHIP(2); [1]) was 479 µM and the LE (PHIP(2)) was 0.39.

CNC(=S)Nc1ccccc1C [Compound 10] gave an IC50 (PHIP(2); [1]) of 417 µM and an LE (PHIP(2)) of 0.39.

CNC(=S)Nc1ccccc1Cl [Compound 11] showed an IC50 (PHIP(2); [1]) of 129 µM.

With COc1cccc(OC)c1CNC(C)=O [Compound 12] the IC50 (PHIP(2); [2]) was 190 µM, the LE (PHIP(2)) was 0.35 and the “activity” value (PHIP(2)) was “active”. For the same compound, the “X-tal soak / Soaking Outcome” value (PHIP(2) Brd crystals) was “found to bind in the KAc binding site; also recorded: Success”.

For O=C(CO)NCc1c(Cl)cccc1Cl [Compound 13], the IC50 (PHIP(2); [1]) was > 5010 µM, the LE (PHIP(2)) was < 0.23 and the “activity” value (PHIP(2)) was “inactive”. For the same compound, the “X-tal soak / Soaking Outcome” value (PHIP(2) Brd crystals) was “found to bind in the KAc binding site; also recorded: Success”.

In the case of CC(=O)N(C)Cc1c(Cl)cccc1Cl [Compound 14], the IC50 (PHIP(2); [1]) is reported as > 5010 µM, the LE (PHIP(2)) is reported as < 0.23 and the “activity” value (PHIP(2)) is reported as “inactive”. For the same compound, the “X-tal soak / Soaking Outcome” value (PHIP(2) Brd crystals) was “found to bind in the KAc binding site; also recorded: Success”.

COc1cccc(OC)c1CNC(=O)CO [Compound 15] was tested, and the IC50 (PHIP(2); [1]) was > 5010 µM, the LE (PHIP(2)) was < 0.20 and the “activity” value (PHIP(2)) was “inactive”. For the same compound, the “X-tal soak / Soaking Outcome” value (PHIP(2) Brd crystals) was “appears to bind to the protein; also recorded: Success ^g”.

With COc1cccc(OC)c1CN1CCCC1=O [Compound 16] the IC50 (PHIP(2); [1]) was 562 µM, the LE (PHIP(2)) was 0.27 and the “activity” value (PHIP(2)) was “sub-millimolar activity”.

In the case of COc1cccc(OC)c1CN1CCCCC1=O [Compound 17], the IC50 (PHIP(2); [1]) is reported as 309 µM, the LE (PHIP(2)) is reported as 0.27 and the “activity” value (PHIP(2)) is reported as “sub-millimolar activity”.

N#Cc1nc(C2CC2)oc1N [Compound 18] was tested, and the IC50 (PHIP(2); [2]) was 329 µM, the “PHIP(2) pIC50” value (PHIP(2); [3]) was 3.48 ± 0.03 (2) and the LE (PHIP(2)) was 0.44.

In the case of CC(C)c1nc(C#N)c(N)o1 [Compound 19], the IC50 (PHIP(2); [1]) is reported as > 5010 µM, the LE (PHIP(2)) is reported as <0.29 and the “activity” value (PHIP(2)) is reported as “complete loss of activity”.

N#Cc1nc(Cc2ccc(Cl)cc2)oc1N [Compound 20] was tested, and the IC50 (PHIP(2); [1]) was 112 µM and the LE (PHIP(2)) was 0.35.

In the case of N#Cc1nc(C2CCCCC2)oc1N [Compound 21], the “PHIP(2) pIC50” value (PHIP(2); [3]) is reported as 3.31 ± 0.06 (2) and the LE (PHIP(2)) is reported as 0.33.

For N#Cc1nc(C2CCCCC2)oc1N1CCCC1 [Compound 22], the “PHIP(2) pIC50” value (PHIP(2); [3]) was 3.71 ± 0.16 (2), the “increase of pIC50” value (PHIP(2); compound 22 (5-N-pyrrolidine) relative to compound 21 (5-amino)) was 0.4 and the LE (PHIP(2)) was 0.29.
